Data from patent US20250212891A1, “MIXTURES AND COMPOSITIONS COMPRISING PAENIBACILLUS STRAINS OR FUSARICIDINS AND CHEMICAL PESTICIDES” (BASF SE, priority 2016, published 2025).
Where two headings read alike, the source gives them in different places. Positions of bridges follow the written chain, without caps; N, C: chain ends. Non-standard residues stand in square brackets, D forms with d. Residues, ends and D or L forms follow the SMILES beside them. ξ: configuration not given here. *: point of attachment. Pentadecanoyl(3ξ-OH,15-Gua) = N=C(N)NCCCCCCCCCCCCC(O)CC(=O)*; d(aThr) = C[C@@H](O)[C@@H](N)C(=O)O; Thr(3ξ) = CC(O)[C@H](N)C(=O)O; ξY = NC(Cc1ccc(O)cc1)C(=O)O

Tests used:
[1] = system: Phytophthora infestans (PHYTIN); assay type: in vivo; settings: protective application, 7.2 ppm
[2] = system: Fusarium graminearum (GIBBZE); assay type: in vivo; settings: protective application, 360 ppm
[3] = system: Botrytis cinerea (BOTRCI); assay: Fungal growth assay in 96 well plates; assay type: cell-based; settings: evaluation 7 days after inoculation, OD 600 nm, about 18° C., read-out: Fungal growth inhibition (IC50 [μM]) BOTRCI (7 d)
[4] = system: Alternaria solani (ALTESO); assay: Fungal growth assay in 96 well plates; assay type: cell-based
[5] = system: Botrytis cinerea (BOTRCI); assay: Glasshouse test, grey mold on pepper, protective application; assay type: in vivo; settings: in planta
[6] = system: Phakopsora pachyrhizi (PHAKPA); assay: Glasshouse test, soybean rust on soybean, protective application; assay type: in vivo; settings: in planta, 360 ppm
[7] = system: Botrytis cinerea; assay: Microtiterplate test against grey mold (Botrci); assay type: cell-based
[8] = system: Pyricularia oryzae; assay type: cell-based; settings: Pyrior, single active, 7 days after inoculation
[9] = system: Septoria tritici; assay: Microtiterplate test against leaf blotch on wheat (Septtr); assay type: cell-based
[10] = system: Alternaria solani; assay: Microtiterplate test against early blight (Alteso); assay type: cell-based
[11] = system: Leptosphaeria nodorum; assay: Microtiterplate test against wheat leaf spots (Leptno); assay type: cell-based
[12] = system: Septoria tritici (SEPTTR); assay type: in vivo; settings: protective application, 360 ppm
[13] = system: clinically relevant fungi and gram-positive bacteria such a Staphylococcus aureus; settings: ChemMedChem 7, 871-882, 2012; cited from earlier work
[14] = system: Alternaria solani (ALTESO); assay: Glasshouse test, early blight on tomato, protective application; assay type: in vivo; settings: in planta, 36 ppm
[15] = evaluation 3 days after inoculation, OD 600 nm, about 18° C., read-out: Fungal growth inhibition (IC50 [μM]) ALTESO (3 d)
[16] = evaluation 7 days after inoculation, OD 600 nm, about 18° C., read-out: Fungal growth inhibition (IC50 [μM]) ALTESO (7 d)
[17] = Alternaria solani, 72 h, evaluation 3 days after inoculation, OD 600 nm, about 18° C., read-out: Fungal growth inhibition (IC50 [μM]) ALTESO (3 d)
[18] = Alternaria solani, 168 h, evaluation 7 days after inoculation, OD 600 nm, about 18° C., read-out: Fungal growth inhibition (IC50 [μM]) ALTESO (7 d)
[19] = Alternaria solani, summary over ALTESO and BOTRCI of Tab. 18, read-out: IC50 values (antifungal efficacy, Tab. 18)
[20] = Botrytis cinerea, 168 h, read-out: Observed efficacy
[21] = Botrytis cinerea, 168 h, 1 ppm, read-out: Observed efficacy
[22] = Botrytis cinerea, 168 h, 0.016 ppm, read-out: Observed efficacy
[23] = Botrytis cinerea, 168 h, 0.063 ppm, read-out: Observed efficacy

For `CC(C)[C@@H]1NC(=O)[C@@H](C(C)C)NC(=O)[C@@H](NC(=O)CC(O)CCCCCCCCCCCCN=C(N)N)C(C)OC(=O)[C@@H](C)NC(=O)[C@@H](CCC(N)=O)NC(=O)[C@@H]([C@H](C)O)NC1=O` (stereo in doubt) [Fusaricidin B, fusaricidin B], the “% efficacy (% fungal attack), late blight on tomato caused by Phytophthora infestans” value (“% efficacy … by Phytophthora infestans” below) [1] was 4%, the “% efficacy (% fungal attack), head blight on wheat caused by Fusarium graminearum” value [2] was 0% and the IC50 [3] was 0.6 µM. For the same compound, the IC50 [4, 15] was 1.1 µM and the IC50 [4, 16] was 0.6 µM.

For `CCC(C)C1NC(=O)C(NC(=O)CC(O)CCCCCCCCCCCCNC(=N)N)C(C)OC(=O)C(C)NC(=O)C(CCC(N)=O)NC(=O)C(C(C)O)NC(=O)C(Cc2ccc(O)cc2)NC1=O` (centres unmarked) [Compound 1B, fusaricidin 1B] ({Pentadecanoyl(3ξ-OH,15-Gua)}-TIYTQA; ester 1-C; configuration not given here), the “% efficacy (% fungal attack) BOTRCI” value ([5]; 36 ppm) was 97%, the “% efficacy (% fungal attack) BOTRCI” value ([5]; 360 ppm) was 100% and the “% efficacy (% fungal attack) PHAKPA” value [6] was 97%. The IC50 ([3]; Botrytis cinerea, 168 h) was 0.4 µM, the IC50 [4, 17] was 0.6 µM and the IC50 [4, 18] was 0.4 µM. It also gave an IC50 [4, 19] of 0.4 to 0.6 µM, an inhibition of growth at 0.25 ppm [7, 20] of 4% and an inhibition of growth at 1 ppm [7, 21] of 50%. The Observed efficacy ([8]; 0.016 ppm) was 2%, the Observed efficacy ([8]; 0.063 ppm) was 3% and the Observed efficacy ([8]; 0.25 ppm) was 3%. It also gave an Observed efficacy ([8]; 1 ppm) of 12%, an Observed efficacy ([9]; 0.016 ppm) of 20% and an Observed efficacy ([9]; 0.063 ppm) of 22%. For the same compound, the Observed efficacy ([9]; 0.25 ppm) was 20%, the Observed efficacy ([10]; 0.063 ppm) was 13% and the Observed efficacy ([10]; 0.25 ppm) was 14%. The Observed efficacy ([10]; 1 ppm) was 59%, the Observed efficacy ([11]; 0.25 ppm) was 0% and the Observed efficacy ([11]; 1 ppm) was 14%.

Work on `CC1(C)CCC(Cc2ccc(Cl)cc2)C1(O)Cn1cncn1` (centres unmarked) [Metconazol, metconazole, reference compound] yielded an inhibition of growth at 0.004 ppm ([7]; Botrytis cinerea, 168 h, 0.004 ppm, read-out: Observed efficacy) of 1%, an inhibition of growth at 0.016 ppm [7, 22] of 9% and an inhibition of growth at 0.063 ppm [7, 23] of 29%. The Observed efficacy ([8]; 0.25 ppm) was 23%, the Observed efficacy ([9]; 0.016 ppm) was 25% and the Observed efficacy ([10]; 0.063 ppm) was 45%. The Observed efficacy ([11]; 0.016 ppm) was 3% and the Observed efficacy ([11]; 0.063 ppm) was 27%.

With `CC1OC(=O)[C@@H](C)NC(=O)[C@@H](CCC(N)=O)NC(=O)[C@@H]([C@H](C)O)NC(=O)C(Cc2ccc(O)cc2)NC(=O)[C@@H](C(C)C)NC(=O)[C@H]1NC(=O)CC(O)CCCCCCCCCCCCN=C(N)N` (some centres unmarked) [Fusaricidin D, fusaricidin D] ({Pentadecanoyl(3ξ-OH,15-Gua)}-[Thr(3ξ)][dV][ξY][dT][dQ][dA]; ester 1-C) the “% efficacy … by Phytophthora infestans” value [1] was 0%, the “% efficacy (% fungal attack), head blight on wheat caused by Septoria tritici” value [12] was 50% and the IC50 [3] was 0.5 µM. It also gave an IC50 [4, 15] of 1.1 µM and an IC50 [4, 16] of 0.6 µM.

In the case of `COC(=O)N(OC)c1ccccc1COc1ccn(-c2ccc(Cl)cc2)n1` [Pyraclostrobin, pyraclostrobin, reference compound], the inhibition of growth at 0.001 ppm ([7]; Botrytis cinerea, 168 h, 0.001 ppm, read-out: Observed efficacy) is reported as 4%, the inhibition of growth at 0.016 ppm [7, 22] is reported as 5% and the inhibition of growth at 0.25 ppm [7, 20] is reported as 10%. It also gave an Observed efficacy ([8]; 0.001 ppm) of 28%, an Observed efficacy ([8]; 0.004 ppm) of 44% and an Observed efficacy ([9]; 0.004 ppm) of 12%. For the same compound, the Observed efficacy ([11]; 0.001 ppm) was 3% and the Observed efficacy ([11]; 0.016 ppm) was 11%.

With `COCC(=O)N(c1c(C)cccc1C)[C@H](C)C(=O)OC` [Mefenoxam] the Observed efficacy ([7]; 0.063 ppm) was 5% and the Observed efficacy ([10]; 1 ppm) was 18%.

For `Cn1cc(C(=O)Nc2ccccc2-c2cc(F)c(F)c(F)c2)c(C(F)F)n1` [Fluxapyroxad], the Observed efficacy ([7]; 0.016 ppm) was 1%.

For `CC(C)[C@@H]1NC(=O)[C@@H](C(C)C)NC(=O)[C@@H](NC(=O)CC(O)CCCCCCCCCCCCN=C(N)N)[C@@H](C)OC(=O)[C@@H](C)NC(=O)[C@@H](CC(N)=O)NC(=O)[C@@H]([C@@H](C)O)NC1=O` (some centres unmarked) [Fusaricidin A, fusaricidin A] ({Pentadecanoyl(3ξ-OH,15-Gua)}-T[dV]V[d(aThr)][dN][dA]; ester 1-C), the “% efficacy … by Phytophthora infestans” value [1] was 15%, the “% efficacy (% fungal attack), head blight on wheat caused by Fusarium graminearum” value [2] was 31% and the IC50 [3] was 0.5 µM. For the same compound, the IC50 [4, 15] was 1.3 µM, the IC50 [4, 16] was 0.7 µM and the MIC value range [13] was 0.78 to 3.12 µg/mL.

In the case of `N#Cc1c[nH]cc1-c1cccc2c1OC(F)(F)O2` [Fludioxonil], the inhibition of growth at 0.004 ppm [7, 20] is reported as 12%.

In the case of `CO/C=C(/C(=O)OC)c1ccccc1Oc1cc(Oc2ccccc2C#N)ncn1` [Azoxystrobin], the Observed efficacy ([9]; 0.063 ppm) is reported as 60%, the Observed efficacy ([10]; 0.016 ppm) is reported as 43% and the Observed efficacy ([11]; 0.25 ppm) is reported as 59%.

Work on `Cc1cc(C)nc(Nc2ccccc2)n1` [Pyrimethanil] yielded an inhibition of growth at 0.063 ppm [7, 23] of 11%, an inhibition of growth at 4 ppm ([7]; Botrytis cinerea, 168 h, 4 ppm, read-out: Observed efficacy) of 45% and an Observed efficacy ([11]; 0.063 ppm) of 1%.

With `CCC(C)C1NC(=O)C(NC(=O)CC(O)CCCCCCCCCCCCNC(=N)N)C(C)OC(=O)C(C)NC(=O)C(CC(N)=O)NC(=O)C(C(C)O)NC(=O)C(Cc2ccc(O)cc2)NC1=O` (centres unmarked) [Compound 1A, fusaricidin 1A] ({Pentadecanoyl(3ξ-OH,15-Gua)}-TIYTNA; ester 1-C; configuration not given here) the “% efficacy (% fungal attack) BOTRCI” value ([5]; 36 ppm) was 97%, the “% efficacy (% fungal attack) BOTRCI” value ([5]; 360 ppm) was 99% and the “% efficacy (% fungal attack) ALTESO” value [14] was 74%. For the same compound, the “% efficacy (% fungal attack) PHAKPA” value [6] was 95%, the IC50 ([3]; Botrytis cinerea, 168 h) was 0.3 µM and the IC50 [4, 17] was 0.6 µM. It also gave an IC50 [4, 18] of 0.5 µM, an IC50 [4, 19] of 0.4 to 0.6 µM and an inhibition of growth at 1 ppm [7, 21] of 40%. It also gave an Observed efficacy ([8]; 0.004 ppm) of 3%, an Observed efficacy ([8]; 1 ppm) of 7% and an Observed efficacy ([9]; 0.016 ppm) of 9%. The Observed efficacy ([9]; 0.063 ppm) was 8%, the Observed efficacy ([9]; 0.25 ppm) was 12% and the Observed efficacy ([10]; 0.016 ppm) was 1%. It also gave an Observed efficacy ([10]; 0.063 ppm) of 7%, an Observed efficacy ([10]; 0.25 ppm) of 10% and an Observed efficacy ([10]; 1 ppm) of 58%. For the same compound, the Observed efficacy ([11]; 1 ppm) was 19%.

Work on `CC(O)(Cn1cncn1)c1ccc(Oc2ccc(Cl)cc2)cc1C(F)(F)F` (centres unmarked) [Mefentrifluconazol, 2-[4-(4-chlorophenoxy)-2-(trifluoromethyl)phenyl]-1-(1H-1,2,4-triazol-1-yl) propan-2-ol, reference compound] yielded an inhibition of growth at 0.016 ppm [7, 22] of 5%, an Observed efficacy ([9]; 0.001 ppm) of 21% and an Observed efficacy ([10]; 0.016 ppm) of 12%. It also gave an Observed efficacy ([11]; 0.001 ppm) of 0% and an Observed efficacy ([11]; 0.016 ppm) of 29%.

prohexadione-calcium [Prohexadion-ca] gave an Observed efficacy ([8]; 4 ppm) of 4%.

In the case of `COCC(=O)N(c1c(C)cccc1C)C(C)C(=O)OC` (centres unmarked) [Metalaxyl], the inhibition of growth at 0.25 ppm [7, 20] is reported as 0%, the Observed efficacy ([10]; 16 ppm) is reported as 10% and the Observed efficacy ([11]; 0.063 ppm) is reported as 0%.

`Cn1cc(C(=O)Nc2cccc3c2[C@@H]2CC[C@H]3C2=C(Cl)Cl)c(C(F)F)n1` (racemic) [Benzovindiflupyr, benzovindiflupyr, reference compound] showed an Observed efficacy ([7]; 0.063 ppm) of 17%, an Observed efficacy ([8]; 0.016 ppm) of 72% and an Observed efficacy ([9]; 0.25 ppm) of 77%. For the same compound, the Observed efficacy ([10]; 0.016 ppm) was 12% and the Observed efficacy ([11]; 0.25 ppm) was 26%.

For `CC1(C)CCC(=Cc2ccc(Cl)cc2)C1(O)Cn1cncn1` (centres unmarked) [Triticonazol, triticonazole, reference compound], the inhibition of growth at 0.25 ppm [7, 20] was 19% and the Observed efficacy ([8]; 4 ppm) was 39%.

With `OC(Cc1ccccc1Cl)(Cn1nc[nH]c1=S)C1(Cl)CC1` (centres unmarked) [Prothioconazol, prothioconazole, reference compound] the Observed efficacy ([8]; 0.25 ppm) was 25% and the Observed efficacy ([9]; 0.063 ppm) was 10%.

With `CNC(=O)/C(=N/OC)c1ccccc1COc1cc(C)ccc1C` [Dimoxystrobin] the Observed efficacy ([7]; 0.063 ppm) was 0%, the Observed efficacy ([7]; 1 ppm) was 23% and the Observed efficacy ([9]; 0.063 ppm) was 73%. It also gave an Observed efficacy ([10]; 0.063 ppm) of 36%.

With `O=C(NCCc1ncc(C(F)(F)F)cc1Cl)c1ccccc1C(F)(F)F` [Fluopyram] the Observed efficacy ([9]; 0.25 ppm) was 12% and the Observed efficacy ([9]; 1 ppm) was 32%.

In the case of `CC1COC(Cn2cncn2)(c2ccc(Oc3ccc(Cl)cc3)cc2Cl)O1` (centres unmarked) [Difenoconazol], the Observed efficacy ([10]; 0.25 ppm) is reported as 67%.
